Laboratory results: article PMC8878317, “Chemogenomics identifies acetyl-coenzyme A synthetase as a target for malaria treatment and prevention” (Cell Chemical Biology, 2022)

Test system: P. falciparum 3D7 parasites
Assay: Metabolomic profiling of compound-treated parasites (LC/MS);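 as to Metabolite data: 3-Phosphoglycerate: Log2 fold change in abundance versus untreated parasite controls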;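 as to Metabolite data: Myo-Inositol: Log2 fold change in abundance versus untreated parasite controls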;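 as to Metabolite data: N-Carbamoyl-L-Aspartate: Log2 fold change in abundance versus untreated parasite controls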;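 as to Metabolite data: Nicotinate: Log2 fold change in abundance versus untreated parasite controls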
Assay type: cell-based
Parameters: Metabolite data: dTMP / Metabolite data: GMP / Metabolite data: S-Adenosyl-L-Homocysteine / Metabolite data: 1_3-Bisphosphoglyceric acid: scale not given here
Protocol: The metabolite extraction protocol was performed as described elsewhere ([Allman et al., 2016]). Briefly, 1 mL of trophozoites that were magnetically purified to a concentration of 1×10^8 parasites/mL were placed into wells with 4 mL of RPMI 1640 media and allowed to recover for one hour. […] The culture was incubated for another 2.5 hr. The culture was centrifuged and quenched with 90% methanol containing 0.25 μM ^13C,^15N-Labeled-Aspartate, vortexed, and centrifuged. The supernatant was transferred to a new tube and dried for storage. Prior to analysis, the samples were resuspended to a final concentration of 1×10^8 parasites/mL in a solution of 3% methanol:water containing 1 μM chlorpropamide as an internal standard.
The chromatographic conditions used in this experiment were performed with slight modifications from previous methods ([Zhang et al., 2018]). Briefly, a Waters XSelect HSS C18 column was used on a gradient reverse-phase chromatographic configuration with 97:3 water:methanol with 10 mM tributylamine and 15 mM acetic acid (solvent A) and methanol (solvent B). A Thermo-Scientific Exactive Plus Orbitrap mass spectrometer was operated in negative mode for the detection of the metabolites. Peak picking and integration were performed using El-Maven LC/MS data processing software. The peak data were then exported to Excel where metabolite areas were normalized to the internal standards, blank subtracted, and averaged by condition.

C[C@H]1Cc2c([nH]c3cc(Cl)c(F)cc23)[C@@]2(N1)C(=O)Nc1ccc(Cl)cc12 [NITD609]
Metabolite data: 1_3-Bisphosphoglyceric acid: 0 | Metabolite data: 2_3-Diphosphoglyceric acid: -2.22 | Metabolite data: 3-Phosphoglycerate: 0.01 | Metabolite data: 4-Aminobutyrate: -0.54 | Metabolite data: 4-Phosphopantothenate: -0.15 | Metabolite data: 4-phosphopantetheine: 0 | Metabolite data: 5-aminopentanoic acid: 0 | Metabolite data: 5-phosphoribosyl-1-pyrophosphate: 0 | Metabolite data: 6-Phospho-D-Gluconate: -0.28 | Metabolite data: ADP-D-Glucose: 0.02 | Metabolite data: Acetyl-CoA: -0.54 | Metabolite data: Acetyllysine: -1.93 | Metabolite data: Aconitate: 0.62 | Metabolite data: CDP: -0.29 | Metabolite data: CDP-Ethanolamine: -0.28 | Metabolite data: CDP-choline: 0 | Metabolite data: CMP: 1.24 | Metabolite data: CTP: -1.27 | Metabolite data: Citrate/Isocitrate: 0.19 | Metabolite data: Cyclic-AMP: -1.16 | Metabolite data: Dihydroorotate: -2.01 | Metabolite data: FAD: -1.31 | Metabolite data: FMN: -1 | Metabolite data: Fructose-1,6-Bisphosphate: -1.13 | Metabolite data: Fumarate: -0.06 | Metabolite data: GDP: -2.58 | Metabolite data: GMP: -2.42 | Metabolite data: GTP: -1.11 | Metabolite data: Glucose-1/6-Phosphate: -0.9 | Metabolite data: Glutathione Disulfide: -0.38 | Metabolite data: Hexose: 0 | Metabolite data: Hydroxyisocaproic acid: 0 | Metabolite data: Indole: 0.17 | Metabolite data: Ketoleucine: 0 | Metabolite data: L-arginino-succinate: 0 | Metabolite data: Lactate: -1.31 | Metabolite data: Malate: -0.06 | Metabolite data: Myo-Inositol: -3.27 | Metabolite data: N-Acetyl-Glutamate: -0.27 | Metabolite data: N-Acetyl-L-Alanine: -1.42 | Metabolite data: N-Acetyl-L-Ornithine: -1.27 | Metabolite data: N-Carbamoyl-L-Aspartate: -4.57 | Metabolite data: NAD+: -0.4 | Metabolite data: NADH: 0.03 | Metabolite data: NADP+: -0.12 | Metabolite data: NADPH: 0.35 | Metabolite data: Nicotinate: 0.78 | Metabolite data: Octulose 8/1-Phosphate: -1.92 | Metabolite data: Orotate: 0.91 | Metabolite data: PD: 0 | Metabolite data: PE: 0 | Metabolite data: PEEK: 0 | Metabolite data: Phenol Red: 0 | Metabolite data: Pyroglutamic acid: -0.06 | Metabolite data: S-Adenosyl-L-Homocysteine: -1.64 | Metabolite data: S-methyl-5'-thioadenosine: -0.53 | Metabolite data: SD: 0 | Metabolite data: Sedoheptulose Bisphosphate: -1.34 | Metabolite data: UDP: -0.96 | Metabolite data: UDP-D-Glucose: -0.2 | Metabolite data: UDP-D-Glucuronate: -0.36 | Metabolite data: UDP-N-Acetyl-Glucosamine: 0.03 | Metabolite data: UMP: -0.38 | Metabolite data: UTP: -2.05 | Metabolite data: a-ketoglutarate: 0.5 | Metabolite data: acetyl-aspartate: 0 | Metabolite data: arginine: 0 | Metabolite data: asparagine: 0 | Metabolite data: aspartate: 0 | Metabolite data: biotin: 0 | Metabolite data: chlorpropamide: 0 | Metabolite data: coenzyme A: 0 | Metabolite data: dAMP: 2.56 | Metabolite data: dATP: -0.71 | Metabolite data: dCDP: 1.68 | Metabolite data: dCMP: 1.5 | Metabolite data: dCTP: 0.45 | Metabolite data: dGDP/ADP: 0 | Metabolite data: dGMP/AMP: -1.14 | Metabolite data: dGTP/ATP: 0 | Metabolite data: dTDP: 2.45 | Metabolite data: dTMP: 3.96 | Metabolite data: dTTP: 1.4 | Metabolite data: folate: 0 | Metabolite data: glucono-lactone: 0 | Metabolite data: glutamate: 0 | Metabolite data: glutamine: 0 | Metabolite data: glutathione: 0 | Metabolite data: histidine: 0 | Metabolite data: hydroxyproline/Aminolevulinate: 0 | Metabolite data: isoleucine: 0 | Metabolite data: leucine: 0 | Metabolite data: maleic acid: 0 | Metabolite data: methionine: 0 | Metabolite data: nicotinamide mononucleotide: 0 | Metabolite data: orotidine-5'-phosphate: 0

CCc1nc(N)nc(N)c1-c1ccc(Cl)cc1 [Pyrimethamine]
Metabolite data: 1_3-Bisphosphoglyceric acid: 0 | Metabolite data: 2_3-Diphosphoglyceric acid: 0.1448 | Metabolite data: 3-Phosphoglycerate: 0.06527 | Metabolite data: 4-Aminobutyrate: 0.06366 | Metabolite data: 4-Phosphopantothenate: 0.159 | Metabolite data: 4-phosphopantetheine: 0 | Metabolite data: 5-aminopentanoic acid: 0 | Metabolite data: 5-phosphoribosyl-1-pyrophosphate: 0 | Metabolite data: 6-Phospho-D-Gluconate: 0.08879 | Metabolite data: ADP-D-Glucose: 0.2656 | Metabolite data: Acetyl-CoA: 0.1996 | Metabolite data: Acetyllysine: 0.2921 | Metabolite data: Aconitate: 0.4355 | Metabolite data: CDP: 0.1713 | Metabolite data: CDP-Ethanolamine: 1.312 | Metabolite data: CDP-choline: 0 | Metabolite data: CMP: 0.005842 | Metabolite data: CTP: -0.1699 | Metabolite data: Citrate/Isocitrate: -0.2585 | Metabolite data: Cyclic-AMP: 0.06421 | Metabolite data: Dihydroorotate: 1.359 | Metabolite data: FAD: 0.05439 | Metabolite data: FMN: -0.4759 | Metabolite data: Fructose-1,6-Bisphosphate: 0.2831 | Metabolite data: Fumarate: 0.3378 | Metabolite data: GDP: 0.005686 | Metabolite data: GMP: 0.1718 | Metabolite data: GTP: -0.6779 | Metabolite data: Glucose-1/6-Phosphate: 0.1953 | Metabolite data: Glutathione Disulfide: 0.3348 | Metabolite data: Hexose: 0 | Metabolite data: Hydroxyisocaproic acid: 0 | Metabolite data: Indole: -0.02333 | Metabolite data: Ketoleucine: 0 | Metabolite data: L-arginino-succinate: 0 | Metabolite data: Lactate: 0.8185 | Metabolite data: Malate: 0.5597 | Metabolite data: Myo-Inositol: 2.112 | Metabolite data: N-Acetyl-Glutamate: 0.1671 | Metabolite data: N-Acetyl-L-Alanine: 0.1511 | Metabolite data: N-Acetyl-L-Ornithine: 0.1555 | Metabolite data: N-Carbamoyl-L-Aspartate: 0.3085 | Metabolite data: NAD+: 0.008224 | Metabolite data: NADH: 4.9 | Metabolite data: NADP+: 0.03009 | Metabolite data: NADPH: 1.808 | Metabolite data: Nicotinate: 0.1972 | Metabolite data: Octulose 8/1-Phosphate: -0.1128 | Metabolite data: Orotate: 0.09092 | Metabolite data: PD: 0.177 | Metabolite data: PE: -0.01685 | Metabolite data: PEEK: 0 | Metabolite data: Phenol Red: 0 | Metabolite data: Pyroglutamic acid: 0.09576 | Metabolite data: S-Adenosyl-L-Homocysteine: 0.08183 | Metabolite data: S-methyl-5'-thioadenosine: 0.0579 | Metabolite data: SD: 0.04153 | Metabolite data: Sedoheptulose Bisphosphate: 0.1986 | Metabolite data: UDP: 0.2702 | Metabolite data: UDP-D-Glucose: 0.138 | Metabolite data: UDP-D-Glucuronate: 0.02668 | Metabolite data: UDP-N-Acetyl-Glucosamine: 0.1474 | Metabolite data: UMP: 0.1095 | Metabolite data: UTP: -0.3099 | Metabolite data: a-ketoglutarate: 0.2017 | Metabolite data: acetyl-aspartate: 0 | Metabolite data: arginine: 0 | Metabolite data: asparagine: 0 | Metabolite data: aspartate: 0 | Metabolite data: biotin: 0 | Metabolite data: chlorpropamide: 0 | Metabolite data: coenzyme A: 0 | Metabolite data: dAMP: -0.3497 | Metabolite data: dATP: 0.1703 | Metabolite data: dCDP: 0.2805 | Metabolite data: dCMP: 0.1423 | Metabolite data: dCTP: -0.258 | Metabolite data: dGDP/ADP: 0.2431 | Metabolite data: dGMP/AMP: -0.07108 | Metabolite data: dGTP/ATP: 0 | Metabolite data: dTDP: 0.3943 | Metabolite data: dTMP: 0.05289 | Metabolite data: dTTP: -0.1782 | Metabolite data: folate: 0 | Metabolite data: glucono-lactone: 0 | Metabolite data: glutamate: 0 | Metabolite data: glutamine: 0 | Metabolite data: glutathione: 0 | Metabolite data: histidine: 0 | Metabolite data: hydroxyproline/Aminolevulinate: 0 | Metabolite data: isoleucine: 0 | Metabolite data: leucine: 0 | Metabolite data: maleic acid: 0 | Metabolite data: methionine: 0 | Metabolite data: nicotinamide mononucleotide: 0 | Metabolite data: orotidine-5'-phosphate: 0
